{"source": "patent US10806730B2", "about": "“Methods of treating cancer with farnesyltransferase inhibitors” (Kura Oncology, Inc., priority 2017, dated 2020)", "type_in_all_cases": "in vivo, human", "key": {"[1]": {"tested_on": "higher risk MDS/CMML subjects", "test": "Clinical study of tipifarnib (INT-28) in higher risk MDS/CMML", "protocol": "A clinical study of tipifarnib (300 mg bid (twice daily), 3 weeks on/1 week off) was conducted in 82 higher risk MDS/CMML subjects. 67 subjects were transfusion dependent (TD) at study entry, whereby a subject receiving one or several red blood cell (RBC) transfusions during screening and up to the first administration of tipifarnib was classified as TD.\n30/67 (45%) MDS subjects were initially classified as having moderate to severe neutropenia, based on their absolute neutrophil count (ANC) of <1,000 cells/μl blood prior to receiving tipifarnib. The ANC of the remaining 37/67 (55%) MDS subjects was ≥1,000 cells/μl blood. 9/30 (30%) MDS subjects with moderate to severe neutropenia and 2/37 (5%) MDS subjects without moderate to severe neutropenia converted to transfusion independence during the tipifarnib study. […] The majority of the subjects that developed transfusion independence were of intermediate (INT) risk of developing AML."}, "[2]": {"tested_on": "elderly patients with newly diagnosed, de novo, or secondary AML", "test": "Ph3 study AML301, tipifarnib vs BSC", "protocol": "(§1) Clinical studies with tipifarnib were performed in newly diagnosed elderly patients with poor risk AML (CTEP-20, Phase 2) and relapsed and refractory AML (INT-17, Phase 2). Patient selection in these studies was not based on genetic markers. Anecdotal evidence of tipifarnib single agent activity was reported. […] Median OS in the overall study was 107 days for the Tipifarnib group and 109 days for the BSC group in AML301."}, "[3]": {"tested_on": "newly diagnosed elderly patients with poor risk AML", "test": "CTEP-20 Phase 2 tipifarnib study", "protocol": "as §1"}, "[4]": {"tested_on": "relapsed and refractory AML", "test": "INT-17 Phase 2 tipifarnib study", "protocol": "as §1"}, "[5]": {"settings": "34 study subjects with outcome and expression data"}, "[6]": {"settings": "CXCR4/CXCR2 expression ratio quartiles 1st-3rd"}, "[7]": {"settings": "bone marrow CXCR4/CXCR2 expression ratio in the upper quartile"}}}
{"compound": "Cn1cncc1[C@@](N)(c1ccc(Cl)cc1)c1ccc2c(c1)c(-c1cccc(Cl)c1)cc(=O)n2C", "note": "[tipifarnib]", "values": [{"measurement": "conversion to transfusion independence (TI)", "setting": "[1]; 67 transfusion dependent (TD) subjects, 300 mg bid, 3 weeks on/1 week off", "result": 16, "unit": "%"}, {"measurement": "conversion to transfusion independence", "setting": "[1]; MDS subjects with neutropenia and high peripheral blast cell count >1%", "result": 11, "unit": "%"}, {"measurement": "conversion to transfusion independence", "setting": "[1]; MDS subjects with neutropenia and low peripheral blast cell count ≤1%", "result": 38, "unit": "%"}, {"measurement": "conversion to transfusion independence", "setting": "[1]; TD MDS subjects with moderate to severe neutropenia (ANC <1,000 cells/μl)", "result": 30, "unit": "%"}, {"measurement": "conversion to transfusion independence", "setting": "[1]; TD MDS subjects without moderate to severe neutropenia (ANC ≥1,000 cells/μl)", "result": 5, "unit": "%"}, {"measurement": "persistence of RBC and platelet transfusion independence", "setting": "[1]; exemplary MDS subject, ANC at screening=400 cells/μl, 300 mg bid, 3 weeks on/1 week off", "result": 308, "unit": "days"}, {"measurement": "hazard ratio, tipifarnib vs reference therapy", "setting": "[2]; ANC/WBC<0.3 and marrow blasts>60%, N=110, P=0.08", "result": 0.67}, {"measurement": "Median survival", "setting": "[2]; ANC/WBC<0.4, WBC>2, platelets>20, N=135", "result": 146, "unit": "days"}, {"measurement": "hazard ratio, tipifarnib vs BSC", "setting": "[2]; ANC/WBC<0.4, WBC>2, platelets>20, N=135, P=0.046", "result": 0.7}, {"measurement": "median progression free survival (PFS)", "setting": "[2]; BMR<0.1 prior to treatment, N=73", "result": 83, "unit": "days"}, {"measurement": "median PFS", "setting": "[2]; BMR≥0.1 prior to treatment, N=140", "result": 60, "unit": "days"}, {"measurement": "Median OS", "setting": "[2]; overall study", "result": 107, "unit": "days"}, {"measurement": "Hazards ratio, Tipifarnib compared with BSC", "setting": "[2]; overall study, N=457, non significant", "result": 1.02}, {"measurement": "Median survival", "setting": "[2]; subset with high BM blasts (>40%) and low peripheral blasts (<10%), N=82", "result": 201, "unit": "days"}, {"measurement": "HR, tipifarnib vs BSC", "setting": "[2]; subset with high BM blasts (>40%) and low peripheral blasts (<10%), N=82, P=0.019", "result": 0.58}, {"measurement": "Median overall PFS", "setting": "[3]; [5]", "result": 84, "unit": "days"}, {"measurement": "Median overall survival", "setting": "[3]; [5]", "result": 233, "unit": "days"}, {"measurement": "median progression free survival (PFS)", "setting": "[3]; BMR<0.1 prior to treatment, N=57", "result": 93, "unit": "days"}, {"measurement": "median PFS", "setting": "[3]; BMR≥0.1 prior to treatment, N=84", "result": 47, "unit": "days"}, {"measurement": "Median survival (FIG. 7A, PFS probabilities)", "setting": "[3]; [6]", "result": 67, "unit": "days"}, {"measurement": "Median survival (FIG. 7B)", "setting": "[3]; [6]", "result": 179, "unit": "days"}, {"measurement": "HR (FIG. 7B, survival), upper quartile vs quartiles 1st-3rd", "setting": "[3]; CXCR4/CXCR2 expression ratio, p=0.07", "result": 0.26}, {"measurement": "HR (FIG. 7A, PFS), upper quartile vs quartiles 1st-3rd", "setting": "[3]; CXCR4/CXCR2 expression ratio, p=0.09", "result": 0.44}, {"measurement": "Median survival (FIG. 7A, PFS probabilities)", "setting": "[3]; [7]", "result": 406, "unit": "days"}, {"measurement": "Median survival (FIG. 7B)", "setting": "[3]; [7]", "result": 728, "unit": "days"}, {"measurement": "overall survival", "setting": "[4]; 57 subjects with CXCR4/CXCR2 ratio data", "result": 87, "unit": "days"}, {"measurement": "median PFS", "setting": "[4]; AML subjects overexpressing CXCR4, N=8", "result": 143, "unit": "days"}, {"measurement": "median PFS", "setting": "[4]; AML subjects with relatively lower levels of CXCR4 expression, N=49", "result": 29, "unit": "days"}, {"measurement": "Median survival", "setting": "[4]; CXCR4/CXCR2 quintile group 1", "result": 56, "unit": "days"}, {"measurement": "Median survival", "setting": "[4]; CXCR4/CXCR2 quintile group 2", "result": 78, "unit": "days"}, {"measurement": "Median survival", "setting": "[4]; CXCR4/CXCR2 quintile group 3", "result": 44, "unit": "days"}, {"measurement": "Median survival", "setting": "[4]; CXCR4/CXCR2 quintile group 4", "result": 105, "unit": "days"}, {"measurement": "Median survival", "setting": "[4]; CXCR4/CXCR2 quintile group 5", "result": 182, "unit": "days"}, {"measurement": "HR, 5th quintile of CXCR4/CXCR2 ratio vs rest", "setting": "[4]; p=0.04", "result": 0.52}, {"measurement": "Median survival", "setting": "[4]; rest of the subjects (not 5th quintile of CXCR4/CXCR2 ratio)", "result": 74, "unit": "days"}]}
